Source: ChEMBL document CHEMBL1128101, “Cycloproctolin and [-Methyl-l-Tyr]-proctolin are potent antagonists of proctolin-induced inositol phosphate production in locust foregut homogenates” (1995)
Where a SMILES comes first, the peptide text is derived from it.

What was measured:
Type in all cases: functional
Schistocerca gregaria [1] = assay: Tested for dose dependent release of inositol phosphate (InsP4) at 10 nM
Schistocerca gregaria [2] = assay: Tested for dose dependent release of inositol phosphate (InsP4) at 1 uM
Schistocerca gregaria [3] = assay: Tested for dose dependent release of inositol phosphate (InsP3) at 1 uM
Schistocerca gregaria [4] = assay: Tested for dose dependent release of inositol phosphate (InsP3) at 10 nM
Schistocerca gregaria [5] = assay: Tested for dose dependent release of inositol phosphate (InsP4) at 0.5 uM
Schistocerca gregaria [6] = assay: Tested for dose dependent release of inositol phosphate (InsP3) at 0.5 uM
Schistocerca gregaria [7] = assay: Tested for dose dependent release of inositol phosphate (InsP3) at 1 uM in the presence of compound 1 (0.5 uM)
Schistocerca gregaria [8] = assay: Tested for dose dependent release of inositol phosphate (InsP4) at 1 uM in the presence of compound 1 (0.5 uM)

Row | Molecule | Increase in DPM (Schistocerca gregaria [1]) | Increase in DPM (Schistocerca gregaria [2]) | Increase in DPM (Schistocerca gregaria [3]) | Increase in DPM (Schistocerca gregaria [4]) | Increase in DPM (Schistocerca gregaria [5]) | Increase in DPM (Schistocerca gregaria [6]) | Increase in DPM (Schistocerca gregaria [7]) | Increase in DPM (Schistocerca gregaria [8])
1 | CC(C)C[C@@H](NC(=O)[C@@](C)(Cc1ccc(O)cc1)NC(=O)[C@@H](N)CCCN=C(N)N)C(=O)N1CCC[C@@H]1C(=O)N[C@H](C(=O)O)[C@H](C)O | 250 (mg of protein)-1 | 250 (mg of protein)-1 | 400 (mg of protein)-1 | 500 (mg of protein)-1 |  |  |  | 
2 | CC(C)C[C@@H]1NC(=O)[C@H](Cc2ccc(O)cc2)NC(=O)[C@H](CCCN=C(N)N)NC(=O)[C@H]([C@@H](C)O)NC(=O)[C@@H]2CCCN2C1=O (HELM PEPTIDE1{L.P.T.R.Y}$PEPTIDE1,PEPTIDE1,1:R1-5:R2$$$V2.0) | 750 (mg of protein)-1 | 300 (mg of protein)-1 | 500 (mg of protein)-1 | 1200 (mg of protein)-1 |  |  |  | 
3 | H-RYLPT-OH | 1100 (mg of protein)-1 |  |  | 1250 (mg of protein)-1 | 1600 (mg of protein)-1 | 3400 (mg of protein)-1 |  | 
4 | CC(C)C[C@H](NC(=O)[C@H](Cc1ccc(O)cc1)N(C)C(=O)[C@@H](N)CCCN=C(N)N)C(=O)N1CCC[C@H]1C(=O)N[C@H](C(=O)O)[C@@H](C)O (HELM PEPTIDE1{R.[meY].L.P.T}$$$$V2.0) |  |  |  |  |  |  | 3600 (mg of protein)-1 | 1500 (mg of protein)-1
